Measurements: patent US10596150B2, “Antifungal agents” (F2G LIMITED, priority 2014, dated 2020)

Columns and labels:
L. prolificans FMR 3569 = experiment: Lomentospora prolificans FMR 3569 disseminated infection model (survival, tissue burden); format: in vivo, Male OF-1 mice; settings: VRC 25 mg/kg p.o. QD; Example 1 20 mg/k p.o. BID; from day 1 after challenge for 9 days
Description: L. prolificans (also known as Scedosporium prolificans or S. prolificans) was grown on Potato Dextrose Agar (PDA) for 5 days at 35° C. On the day of infection, cultures were flooded with sterile saline and filtered through sterile gauze to remove clumps of conidia and hyphae. The resulting suspensions were adjusted by haemocytometer count and by serial plating to confirm viability.
Male OF-1 mice with a mean weight of 30 g were used in the experiment. Mice were housed in standard boxes with food and water ad libitum.
Mice were rendered neutropenic two days prior to infection by an intraperitoneal (i.p.) injection of 200 mg/kg of cyclophosphamide, and once every 5 days thereafter (Clemons et al, 2005).
Mice were challenged with 5×10^4 CFU/animal of L. prolificans FMR 3569, in a volume of 0.2 ml of sterile saline into the lateral tail vein.
Treatments consisted of (a) voriconazole (VRC) (Vfend; Pfizer S. A., Madrid, Spain) at 25 mg/kg p.o, by gavage QD; (b) Example 1 at 20 mg/k, p.o, by gavage BID; and (c) no treatment. From 3 days before infection, mice that received VRC were given grapefruit juice instead of water (Sugar & Liu, 2001). All treatments began 1 day after challenge, and the therapy lasted for 9 days. Controls received no treatment.
For survival studies groups of 10 mice were randomly established for each therapy. Mortality was recorded daily until the end of the experiment. […]

[1] = test system: A. fumigatus strain A1163; experiment: Murine survival model of Aspergillus fumigatus infection (survival, kidney burden, serum galactomannan); format: in vivo, male CD-1 mice; settings: for serum galactomannan indices: FIG. 6; for End of study tissue burden (kidney): surviving animals; for survival at end of study: therapy from 24 h post infection for 8 days
Description: Murine survival models are frequently used to assess the efficacy of antifungal drugs against Aspergillus. The models used in the development of Example 1 were carried out at Euprotec Ltd (Manchester) a contract research organisation (CRO) with extensive experience in the evaluation of antifungal drugs. The typical model involves the use of groups of 6-10 male CD-1 mice per treatment group. Mice are immunosuppressed with 200 mg/kg cyclophosphamide injected intraperitoneal 3 days prior to infection. A. fumigatus strain A1163 is cultured on Sabourauds agar for 4-6 days at 35° C. Spores are harvested in phosphate buffered saline (PBS)/Tween, the suspension diluted and the number of spores enumerated. Mice are then infected with an intravenous injection of A. fumigatus spores given through the lateral tail vein. The typical inoculum is 6-8×10^4 cfu/mouse and is sufficient to kill all untreated animals by Day 4-6. The animals die of IA and Aspergillus organisms can be detected in many body tissues. Treatment is typically commenced soon after infection but delays of up to 24 h following infection produce a more challenging model. Treatment is continued for 7-9 days. Treatment may be up to 3 times daily using an oral dosing. Following cessation of treatment, animals are observed for 1-2 days, and then sacrificed. Relevant controls treated with oral drug-free vehicle are always included; ideally there should be no survivors in this group. A positive control consisting of an antifungal drug such as Reference Example 10 was used. This compound consistently produces 100% survival at doses of 10 mg/kg b.i.d. dosed by the oral route. Most models are run as temporary neutropenic models where only a single dose of cyclophosphamide is administered.
The fungal burden in the kidney can be determined on animals surviving to the end of the study and this can help provide efficacy discrimination between groups where all animals survive. Tissue burdens are carried out by removing the kidneys from animals when they are culled at the end of the study. These are homogenised in saline and plated onto Sabourauds agar and incubated at 35° C. for 72 h. Aspergillus colonies are counted and the amount of aspergillus per gram of kidney calculated. The results are expressed as colony forming units per gramme (cfu/g). […] However, data from studies where tissue burden has been carried out on untreated animals at day 4 or 5 has shown that tissue burdens are typically in excess of 20,000 cfu/g and may exceed 100,000 cfu/g in some studies.
In some of the survival studies described below serum samples were collected from surviving mice at the end of the study or on mice that succumbed to infection during the study to examine the effect of Example 1 on galactomannan levels and to see if there was a relationship between galactomannan levels and survival.
The galactomannan assays were carried out on serum samples that had been stored frozen at −80° C. Samples were thawed and assayed using a Platelia Aspergillus Ag enzyme-linked immunosorbent assay (ELISA) kit (Biorad). The assay was modified slightly to take into account the small sample volumes available from mice. If assay results were high a repeat test was carried out on a sample diluted in normal mouse serum. The amount of galactomannan in a sample is presented as a galactomannan index. The mean galactomannan index for each group was calculated and is presented graphically against each treatment regimen.
The survival study carried assessed the dose response of Example 1. Example 1 was dosed orally to A. fumigatus infected mice at 2 dose levels 10 mg/kg b.i.d. and 3 mg/kg b.i.d. Therapy was initiated at 24 h post infection and therapy continued for 8 days. At the end of the study kidney burdens were measured on surviving animals. In addition serum samples were taken at the end of the study from all surviving animals and from each animal that died during the course of the study. […]

Cc1cc(-c2ccccc2)c(C(=O)C(=O)Nc2ccc(N3CCN(c4ncc(F)cn4)CC3)cc2)n1C [Example 1, 2-(1,5-dimethyl-3-phenyl-1H-pyrrol-2-yl)-N-(4-(4-(5-fluoropyrimidin-2-yl)piperazin-1-yl)phenyl)-2-oxoacetamide]
survival rates compared with the control (FIG. 7) (L. prolificans FMR 3569): improved survival rates | serum galactomannan indices ([1]; 3 mg/kg b.i.d. oral, similar magnitude to untreated animals): correspondingly high | End of study tissue burden (kidney) ([1]; 3 mg/kg b.i.d. oral): 3021 cfu/gm | survival at end of study ([1]; 3 mg/kg b.i.d. oral): 10% | serum galactomannan indices ([1]; 10 mg/kg b.i.d. oral): very low | End of study tissue burden (kidney) ([1]; 10 mg/kg b.i.d. oral): 1114 cfu/gm | survival at end of study ([1]; 10 mg/kg b.i.d. oral): 100%
